The nature of data set [1]: Solubility by laser nephelometry in assay conditions. As to conditions: for Sol. (solubility threshold): laser nephelometry, assay conditions.
The target of data set [2] is T1, RNA triphosphatase TbCet1 (Trypanosoma brucei brucei, UniProt Q582T2).
T1 sequence (Q582T2 1-253): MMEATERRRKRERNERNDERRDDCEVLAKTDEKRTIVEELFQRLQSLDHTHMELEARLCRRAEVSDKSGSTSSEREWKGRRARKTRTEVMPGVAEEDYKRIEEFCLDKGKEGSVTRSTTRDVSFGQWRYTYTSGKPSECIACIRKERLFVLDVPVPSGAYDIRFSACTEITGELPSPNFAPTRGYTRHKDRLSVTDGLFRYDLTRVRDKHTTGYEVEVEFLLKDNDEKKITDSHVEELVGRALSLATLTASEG
The experiment in a line: Transcreener ADP fluorescence polarization assay, dose-response. The class given is biochemical. For orientation: Fluorescence polarisation rises when a labelled molecule tumbles more slowly, as on binding a larger partner.

The nature of a further data set: physchem. As to conditions: pH 8, aqueous buffer, kinetic from dmso stock.

Consider 18 compounds from paper PMC3626118 (Combinatorial chemistry & high throughput screening, 2009).

One may read the solubility as the dissolved amount per volume that the medium holds. A higher solubility goes with much dissolved substance. For orientation: IC50 means the point on the concentration scale where inhibition reaches its midpoint. A lower IC50 goes with greater potency.

`O=c1c(O)c(-c2cc(O)c(O)c(O)c2)oc2cc(O)cc(O)c12` [SKI 211290, Myricetin] came in with a solubility in data set [1] (pH 8, aqueous buffer, kinetic from dmso stock) of more than 100 µM. In data set [2], the midpoint of inhibition, the IC50, lay at 7200 nM.

Regarding `O=C(O[C@@H]1Cc2c(O)cc(O)cc2O[C@@H]1c1cc(O)c(O)c(O)c1)c1cc(O)c(O)c(O)c1` [SKI 209458, Epigallocatechin-3-monogallate], the “Sol. (solubility threshold)” value in data set [1] was more than 100 µM.

The compound `COc1cc(O)c2c(=O)c(O)c(-c3ccc(O)c(O)c3)oc2c1` [SKI 209674, Rhamnetin] came in with a 50% inhibitory concentration (IC50) in data set [2] of 3900 nM.

Compound `O=c1c(-c2cc(O)c(O)c(O)c2)coc2cc(O)c(O)c(O)c12` [SKI 209392, Irigenol] gave an IC50 in data set [2] of 65 nM.

As for `O=C(O[C@@H]1Cc2c(O)cc(O)cc2O[C@@H]1c1cc(O)c(O)c(O)c1-c1c([C@H]2Oc3cc(O)cc(O)c3C[C@H]2O)cc(O)c(O)c1O)c1cc(O)c(O)c(O)c1` [SKI 209412, 2′,2′-Bisepigallocatechin monogallate], in data set [2], the midpoint of inhibition, the IC50, lay at 10 nM.

As for `NC[C@H](O)c1ccc(O)c(O)c1` [SKI 210170, Norepinephrine, reference compound], the solubility in the data set “physchem” was more than 100 µM. In data set [2], this compound gave a half-maximal inhibitory concentration (IC50) of 720 nM.

Regarding `N[C@@H](Cc1ccc(O)c(O)c1)C(=O)O` [SKI 211511, Levodopa, reference compound], in the data set “physchem”, the solubility is more than 100 µM. The same compound registered an IC50 in data set [2] of 30 nM.

In the case of `Oc1cc(O)c2c(c1)O[C@H](c1cc(O)c(O)c(O)c1)[C@H](O)C2` [SKI 209444, Epigallocatechin], the half-maximal inhibitory concentration (IC50) in data set [2] turned out to be 4400 nM.

`O=C(Oc1cc(O)cc2c1C[C@@H](OC(=O)c1cc(O)c(O)c(O)c1)[C@@H](c1cc(O)c(O)c(O)c1)O2)c1cc(O)c(O)c(O)c1` [SKI 209415, Epigallocatechin-3,5-digallate]: in data set [1], the “Sol. (solubility threshold)” value was more than 100 µM.

In data set [2], `O=C1C=C2CC3(O)COc4c(ccc(O)c4O)C3=C2C=C1O` (stereo not shown) [SKI 210893, Hematein] displayed an IC50 of 200 nM.

As for `Nc1cccc2c1C(=O)c1cccc(N)c1C2=O` [SKI 217754, Anthraquinone, 1,5-diamino], the “Sol. (solubility threshold)” value in data set [1] is more than 100 µM.

As for `O=c1c(O)cccc2c([C@H]3Oc4cc(O)cc(O)c4C[C@H]3O)cc(O)c(O)c12` [SKI 209509, Theaflavanin], the IC50 in data set [2] turned out to be 440 nM.

Regarding `O=C(O[C@@H]1Cc2c(O)cc(O)cc2O[C@@H]1c1ccc(O)c(O)c1)c1cc(O)c(O)c(O)c1` [SKI 209457, Epicatechin monogallate], the “Sol. (solubility threshold)” value in data set [1] is more than 100 µM.

`O=c1c(O)cccc2cc(O)c(O)c(O)c12` [SKI 209468, Purpurogallin] displayed an IC50 in data set [2] of 210 nM.

`O=c1c(O)cc([C@H]2Oc3cc(O)cc(O)c3C[C@H]2O)cc2c([C@H]3Oc4cc(O)cc(O)c4C[C@H]3O)cc(O)c(O)c12` [SKI 209343, Theaflavin] gave an IC50 in data set [2] of 8800 nM.

`O=c1oc2c(O)c(O)cc3c(=O)oc4c(O)c(O)cc1c4c23` [SKI 210886, Ellagic acid] came in with an IC50 in data set [2] of 35 nM.

In turn, `Oc1cc2c(cc1O)C1c3ccc(O)c(O)c3OCC1(O)C2` (stereo not shown) [SKI 209325, Haematoxylin] came in with a solubility in the data set “physchem” of more than 100 µM. In data set [2], this compound showed a half-inhibitory concentration (IC50) of 1700 nM.

Consider `O=c1c(O)c(-c2ccc(O)c(O)c2)oc2cc(O)ccc12` [SKI 210887, Fisetin], for which, in data set [2], half-maximal inhibition (IC50) was put at 2100 nM.
